Patent US20230382923A1, “FUSED TETRACYCLIC QUINAZOLINE DERIVATIVES AS INHIBITORS OF ERBB2” (EnLiven Therapeutics, Inc., priority 2021, published 2023)
Structures can show the parent of a compound that is named as a salt. Where two headings read alike, the source gives them in different places.

How the values were obtained:
Ba/F3 ERBB2 YVMA = experiment: Cell viability assay (CellTiter Glo, 72 hours); type: cell-based, mouse; conditions: Mus musculus, BaF3, 72 h
Procedure: Cells were treated with compounds, and cell viability was measured as a metric of kinase inhibition.
BT-474, A431, MDA-MB-175VII, NCI-H1781, MCF7, and Ba/F3 cell lines were tested. The Ba/F3 cell line is IL-3-dependent mouse cell line derived from the C3H mouse strain. Ba/F3 cell lines were engineered to express human ERBB2 or EGFR kinases, rendering the cells IL-3 independent. The lines were generated via retroviral transduction utilizing a Moloney murine leukemia virus (MMLV) promoter, and constructs are stably integrated into the cell genome. The sequences of the ERBB2 and EGFR genes used were NCBI Reference Sequences NM_004448.3 and NM_005228.3, respectively.
BT-474, A431, MDA-MB-175VII, NCI-H1781 and MCF7 cells were grown in the appropriate growth medium as described in Table B2 below, and harvested at 50-80% confluence. BT-474, A431, MDA-MB-175VII, NCI-H1781 and MCF7 cells were counted and seeded at 2,000 or 1,500 cells per well in 384-well tissue culture plates (see Table B2). Similarly, Ba/F3 cell lines engineered to express EGFR, ERBB2, or ERBB2 mutants were grown, harvested, counted and seeded at 3000 cells per well in 96-well plates. A subset of wells contained media only (low control, “LC”).
Table B1 provides the growth media and number of cells seeded per well for the each cell line.
Compounds were dissolved in DMSO and serially diluted. Serially-diluted compound or a DMSO only control (high control, “HC”) was added to the plated cells in each well. Compounds were tested at concentrations of about 10 μM to 0.51 nM, using three-fold dilutions. The final proportion of DMSO never exceeded 0.1%.
Plates were placed in a 37° C., 5% CO2 incubator for 72 hours. Plates were then removed from the incubator and equilibrated for 15 minutes at room temperature. 40 μl of CellTiter Glo reagent (Promega) was added to measure the relative level of metabolically active cells by quantifying intracellular ATP concentrations. Plates were incubated for 30 minutes at room temperature, and luminescence was measured. Percent viability was normalized to a vehicle control only using the following formula: % viability=100×(LumSample−LumLC)/(LumHC−LumLC). Graphical curves were fitted using a nonlinear regression model with a sigmoidal dose response.

[1] = molecular target: phosphorylated ERBB2 (pERBB2) (Homo sapiens (Human), UniProt P04626); experiment: Detection of phosphorylated ERBB2 (pERBB2) by ELISA in BT-474 cells; type: cell-based; conditions: four hours incubation with compound
Procedure, shortened: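 BT-474 cells were exposed to serially diluted compounds for 4 h at 37 °C, then lysed. Phospho-ERBB2 in lysates was captured by ELISA and detected with an HRP anti-phosphotyrosine antibody and TMB.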

[2] = molecular target: phosphorylated EGFR (pEGFR) (Homo sapiens (Human), UniProt P00533); experiment: Detection of phosphorylated EGFR (pEGFR) by AlphaLISA in A431 cells; type: cell-based; conditions: A431 cells (10% FBS), 4 hours incubation, EGF 30 ng/mL for 10 minutes
Procedure, shortened: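 A431 cells in 10% FBS exposed to compound for 4 h at 37 °C, then stimulated 10 min with 30 ng/mL EGF. Lysates assayed for phospho-EGFR by AlphaLISA. % inhibition relative to DMSO and staurosporine controls; IC50 from four-parameter curve fit.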

[3] = read-out: Ba/F3 ERBB2 YVMA, IC50, nM

phosphorylated ERBB2 (pERBB2), sequence (P04626 23-1255): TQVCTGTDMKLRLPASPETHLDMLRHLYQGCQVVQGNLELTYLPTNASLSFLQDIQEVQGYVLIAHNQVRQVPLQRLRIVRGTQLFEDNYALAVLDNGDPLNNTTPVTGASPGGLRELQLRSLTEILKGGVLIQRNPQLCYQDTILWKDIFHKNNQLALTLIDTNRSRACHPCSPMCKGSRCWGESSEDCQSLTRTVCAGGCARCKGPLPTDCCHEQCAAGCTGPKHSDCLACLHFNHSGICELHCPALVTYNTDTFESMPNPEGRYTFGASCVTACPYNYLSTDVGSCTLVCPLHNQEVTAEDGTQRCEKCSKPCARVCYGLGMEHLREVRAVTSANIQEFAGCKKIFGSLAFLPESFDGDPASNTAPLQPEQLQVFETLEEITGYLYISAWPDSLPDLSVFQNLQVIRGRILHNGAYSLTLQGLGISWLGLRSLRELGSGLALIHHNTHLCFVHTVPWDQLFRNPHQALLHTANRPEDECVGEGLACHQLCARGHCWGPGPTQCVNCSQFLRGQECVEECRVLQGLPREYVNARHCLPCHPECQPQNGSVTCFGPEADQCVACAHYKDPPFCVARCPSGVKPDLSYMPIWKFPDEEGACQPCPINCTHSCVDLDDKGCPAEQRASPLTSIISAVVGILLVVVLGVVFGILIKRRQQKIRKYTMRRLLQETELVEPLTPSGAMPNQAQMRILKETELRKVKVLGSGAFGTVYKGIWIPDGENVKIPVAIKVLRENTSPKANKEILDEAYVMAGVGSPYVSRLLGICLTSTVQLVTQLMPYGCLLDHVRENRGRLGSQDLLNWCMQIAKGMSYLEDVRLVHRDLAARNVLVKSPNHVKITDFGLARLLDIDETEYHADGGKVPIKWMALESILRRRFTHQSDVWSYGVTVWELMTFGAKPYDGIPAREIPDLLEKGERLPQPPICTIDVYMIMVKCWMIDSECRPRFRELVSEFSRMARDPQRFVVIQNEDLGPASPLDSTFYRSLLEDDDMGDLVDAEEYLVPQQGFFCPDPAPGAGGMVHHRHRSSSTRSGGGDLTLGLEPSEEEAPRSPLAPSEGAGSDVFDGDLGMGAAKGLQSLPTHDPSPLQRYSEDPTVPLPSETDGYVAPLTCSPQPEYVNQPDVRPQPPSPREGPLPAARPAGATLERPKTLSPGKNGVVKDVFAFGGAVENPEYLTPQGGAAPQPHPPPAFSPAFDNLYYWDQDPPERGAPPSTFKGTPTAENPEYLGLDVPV
phosphorylated EGFR (pEGFR), sequence (P00533 25-1210): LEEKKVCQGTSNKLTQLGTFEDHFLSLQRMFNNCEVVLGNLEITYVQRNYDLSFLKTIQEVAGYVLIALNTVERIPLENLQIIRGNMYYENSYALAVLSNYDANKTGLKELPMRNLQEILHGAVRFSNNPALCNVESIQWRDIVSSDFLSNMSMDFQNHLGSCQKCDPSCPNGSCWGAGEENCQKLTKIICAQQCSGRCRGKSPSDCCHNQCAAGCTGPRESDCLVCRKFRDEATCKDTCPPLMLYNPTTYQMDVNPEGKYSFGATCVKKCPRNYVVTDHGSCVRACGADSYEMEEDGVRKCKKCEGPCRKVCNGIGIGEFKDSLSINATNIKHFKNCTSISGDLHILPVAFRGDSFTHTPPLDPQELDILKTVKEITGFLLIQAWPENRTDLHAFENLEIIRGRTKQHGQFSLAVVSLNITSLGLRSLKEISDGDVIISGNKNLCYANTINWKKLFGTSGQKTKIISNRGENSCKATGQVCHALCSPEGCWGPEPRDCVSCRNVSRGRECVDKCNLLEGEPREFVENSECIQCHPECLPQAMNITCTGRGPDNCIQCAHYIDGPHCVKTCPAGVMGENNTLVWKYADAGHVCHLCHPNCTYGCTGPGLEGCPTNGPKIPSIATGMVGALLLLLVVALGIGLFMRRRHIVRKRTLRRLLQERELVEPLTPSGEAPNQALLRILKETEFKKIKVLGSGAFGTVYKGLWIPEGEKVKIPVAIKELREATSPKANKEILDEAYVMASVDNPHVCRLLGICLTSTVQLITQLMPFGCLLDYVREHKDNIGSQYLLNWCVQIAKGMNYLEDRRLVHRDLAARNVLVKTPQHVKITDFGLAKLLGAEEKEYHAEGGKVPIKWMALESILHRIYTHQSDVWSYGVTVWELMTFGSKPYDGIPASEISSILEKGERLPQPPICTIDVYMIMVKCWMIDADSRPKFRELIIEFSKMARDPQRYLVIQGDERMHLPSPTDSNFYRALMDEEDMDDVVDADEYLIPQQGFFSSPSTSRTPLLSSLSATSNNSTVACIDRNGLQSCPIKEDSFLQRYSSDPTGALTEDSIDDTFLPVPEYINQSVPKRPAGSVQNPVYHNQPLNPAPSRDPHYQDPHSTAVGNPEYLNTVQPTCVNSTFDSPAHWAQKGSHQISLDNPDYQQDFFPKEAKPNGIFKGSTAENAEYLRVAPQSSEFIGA

IC50 (Ba/F3 ERBB2 YVMA; Ba/F3 cells engineered to express human ERBB2 YVMA mutant, 72 hours, CellTiter Glo viability, read-out: Ba/F3 ERBB2 YVMA, IC50) | SMILES | IC50 (Ba/F3 ERBB2 YVMA; [3]) | IC50 [1] | IC50 [2]
– | Cc1cc(Nc2ncnc3cc4c(nc23)N2CCN(C(=O)/C=C/CN3CCC3)C(CO4)C2)ccc1Oc1ccn2ncnc2c1 (stereo in doubt) [Compound 26, (E)-1-((10S)-4-((4-([1,2,4]triazolo[1,5-a]pyridin-7-yloxy)-3-methylphenyl)amino)-7,8,10,11-tetrahydro-9H-6,10-methanopyrimido[4′,5′:5,6]pyrido[3,2-b][1,4,7]oxadiazonin-9-yl)-4-(azetidin-1-yl)but-2-en-1-one] | 24.9 nM | 41.1 nM | > 10000 nM
10.5 nM | Cc1cc(Nc2ncnc3cc4c(nc23)N2CCN(C(=O)/C=C/[C@H](C)N(C)C)C(CO4)C2)ccc1Oc1ccn2ncnc2c1 (stereo in doubt) [Compound 30, (4S,E)-1-((10S)-4-((4-([1,2,4]triazolo[1,5-a]pyridin-7-yloxy)-3-methylphenyl)amino)-7,8,10,11-tetrahydro-9H-6,10-methanopyrimido[4′,5′:5,6]pyrido[3,2-b][1,4,7]oxadiazonin-9-yl)-4-(dimethylamino)pent-2-en-1-one] | – | 10.6 nM | > 10000 nM
– | C=CC(=O)N1CCN2CC1COc1cc3ncnc(Nc4ccc(Oc5ccn6ccnc6c5)c(C)c4)c3nc12 (stereo in doubt) [Compound 33, 1-((10S)-4-((4-(imidazo[1,2-a]pyridin-7-yloxy)-3-methylphenyl)amino)-7,8,10,11-tetrahydro-9H-6,10-methanopyrimido[4′,5′:5,6]pyrido[3,2-b][1,4,7]oxadiazonin-9-yl)prop-2-en-1-one] | 12 nM | 16.8 nM | 164 nM
– | [2H]C([2H])([2H])N(C/C=C/C(=O)N1CCN2CC1COc1cc3ncnc(Nc4ccc(Oc5ccn6ncnc6c5)c(C)c4)c3nc12)C([2H])([2H])[2H] (stereo in doubt) [Compound 36, (E)-1-((10S)-4-((4-([1,2,4]triazolo[1,5-a]pyridin-7-yloxy)-3-methylphenyl)amino)-7,8,10,11-tetrahydro-9H-6,10-methanopyrimido[4′,5′:5,6]pyrido[3,2-b][1,4,7]oxadiazonin-9-yl)-4-(bis(methyl-d3)amino)but-2-en-1-one formic acid] | 6.19 nM | 9.92 nM | 1620 nM
– | CNC/C=C/C(=O)N1CCN2CC1COc1cc3ncnc(Nc4ccc(Oc5ccn6ncnc6c5)c(C)c4)c3nc12 (stereo in doubt) [Compound 37, (E)-1-((10S)-4-((4-([1,2,4]triazolo[1,5-a]pyridin-7-yloxy)-3-methylphenyl)amino)-7,8,10,11-tetrahydro-9H-6,10-methanopyrimido[4′,5′:5,6]pyrido[3,2-b][1,4,7]oxadiazonin-9-yl)-4-(methylamino)but-2-en-1-one formate] | 52.3 nM | 28 nM | 3620 nM
– | CCc1ccc(Oc2ccc(Nc3ncnc4cc5c(nc34)N3CCN(C(=O)/C=C/CN(C)C)C(CO5)C3)cc2C)cn1 (stereo in doubt) [Compound 38, (E)-4-(dimethylamino)-1-((10S)-4-((4-((6-ethylpyridin-3-yl)oxy)-3-methylphenyl)amino)-7,8,10,11-tetrahydro-9H-6,10-methanopyrimido[4′,5′:5,6]pyrido[3,2-b][1,4,7]oxadiazonin-9-yl)but-2-en-1-one formic acid] | 11.8 nM | 126 nM | 3080 nM
– | [2H]C([2H])([2H])N(C/C=C/C(=O)N1CCN2CC1COc1cc3ncnc(Nc4cc(C)c(Oc5ccn6ncnc6c5)cc4F)c3nc12)C([2H])([2H])[2H] (stereo in doubt) [Compound 46, (E)-1-((10S)-4-((4-([1,2,4]triazolo[1,5-a]pyridin-7-yloxy)-2-fluoro-5-methylphenyl)amino)-7,8,10,11-tetrahydro-9H-6,10-methanopyrimido[4′,5′:5,6]pyrido[3,2-b][1,4,7]oxadiazonin-9-yl)-4-(bis(methyl-d3)amino)but-2-en-1-one] | 7.04 nM | 6.84 nM | 2470 nM
